Read-outs that look alike come from different tables or passages of the source.
Key:
[1] = Rat in vivo CNS penetration: plasma, brain and CSF concentrations by LC-MS/MS; conditions: male, Sprague Dawley, po, 10 mg/kg, 10 mg/kg p.o.; for concentration at 2 h / Kp at 2 h: 2 h post-dose; for concentration at 4 h / Kp at 4 h: 4 h post-dose; for concentration at 6 h / Kp at 6 h: 6 h post-dose; for concentration at 8 h / Kp at 8 h: 8 h post-dose
Protocol: Rat In Vivo CNS Penetration Male Sprague Dawley rats were acquired from Charles River UK Ltd. (Margate, UK) and housed according to UK Home Office guidelines. Drugs were made up to the appropriate concentrations in 0.5% methyl cellulose. Animals were dosed orally (2 mL/kg) by gavage at the doses outlined in Tables 1 to 4 below. At the time points post-dosing, specified in the Tables 1 to 4 below the animals were administered an i.p. injection of sodium pentobarbitone (approximately 330 mg/kg for terminal anaesthesia). Using a guillotine, the animals were decapitated and trunk blood collected into 15 ml Falcon tubes containing 100 IU heparin. Blood was vortexed followed by centrifugation at 6000 rpm, 4° C. for 5 minutes. Plasma was collected for DMPK and ELISA assays and stored at −80° C. until use. Brains were dissected out and divided along the midline, weighed and stored at −80° C. until further use. Method for Analysis of Plasma, Brain and CSF Samples Test compound was prepared as a 1 mg free base/mL solution in DMSO, vortexed and sonicated for 5 min. The 1 mg/mL DMSO solution was diluted to 10 and 30 μg/mL acetonitrile stocks, by adding 10 μL to 990 μL acetonitrile and 30 μL to 970 acetonitrile, respectively. The 10 and 30 μg/mL acetonitrile stocks were then serially diluted 1:9 (v/v) (100 μL stock into 900 μL acetonitrile) to give the following solutions: 0.003, 0.01, 0.03, 0.1, 0.3, 1, 3, 10 and 30 μg/mL acetonitrile. Control male Sprague Dawley rat plasma and the study plasma samples were stored at −80° C. until the day of analysis when they were thawed at room temperature. Control plasma was centrifuged (2,000 g for 10 min) and aliquoted (90 μL) into eppendorf tubes for preparation of standards and blank samples. Study samples were previously aliquoted (100 μL) into eppendorf tubes immediately following collection of the plasma. An aliquot (10 μL) of the appropriate acetonitrile stock was added to the control plasma (to give a final volume of 100 μL) to give the required calibration standards covering the range 1-3000 ng/mL. Double blank and blank samples were prepared by adding 10 μL of acetonitrile to 90 μL of blank plasma. Control male Sprague Dawley rat brain and the study brain samples were weighed after collection and stored at −80° C. until the day of analysis when they were thawed at room temperature. Once thawed brains were diluted with water (4 mL per gram of tissue) and homogenised using a mechanical homogeniser. An aliquot (100 μL) of each study sample was taken into Micronics tubes ready for analysis and sufficient aliquots (90 μL) of control brain homogenate prepared for preparation of standards and blanks. An aliquot (10 μL) of the appropriate acetonitrile stocks was added to the control brain homogenate (to give a final volume of 100 μL) to give the required calibration standards covering the range 1.5-5000 ng/g. Double blank and blank samples were prepared by adding 10 μL of acetonitrile to 90 μL of blank brain homogenate. Each plasma and brain homogenate sample, standard and blank (100 μL) was extracted with an aliquot (300 μL) of acetonitrile (containing 0.1% formic acid and 100 ng/mL of an appropriate internal standard). Double blanks were extracted with an aliquot (300 μL) of acetonitrile containing 0.1% formic acid). All samples, standards and blanks were then vortex mixed and centrifuged (2000 g for 15 min). An aliquot (50 μL) of the resulting supernatant was then taken into a 2 mL 96-deep well plate and diluted with acetonitrile:water (50:50 v/v) (150 μL) ready for analysis by a specific LC-MS/MS method. Control male Sprague Dawley rat CSF and the study CSF samples were stored at −80° C. until the day of analysis when they were thawed at room temperature. An aliquot (50 μL) of each study sample was taken into Micronics tubes ready for analysis and sufficient aliquots (45 μL) of control CSF prepared for preparation of standards and blanks. […]

[2] = Human liver microsomal stability assay; format: in vitro ADME; conditions: 0.1 μmol/L compound, 30 min, 37° C., NADPH generating system
Protocol: Human Liver Microsomal Stability Assay The compound was dissolved in DMSO to prepare 1 mmol/L DMSO solution. The DMSO solution was diluted with distilled water to prepare 1 μmol/L compound dosing solution (DMSO conc.: 0.1%). 105 μL of reaction buffer (1 mol/L phosphate buffer (pH 7.4)/1 mmol/L EDTA (pH 7.4)/distilled water=1/1/5, v/v/v), 15 μL of 1 μmol/L compound dosing solution, and 15 μL of rat or human liver microsomes (5 mg/mL) were mixed, and preincubated for 5 min at 37° C. Metabolic reaction was initiated by adding 15 μL of NADPH generating system (3.3 mmol/L β-NADPH+, 80 mmol/L glucose 6-phosphate, 1 unit/mL glucose 6-phosphate dehydrogenase, 60 mmol/L MgCl2). For the control sample, NADPH generating system was replaced with 60 mmol/L MgCl2. The 150 μL of reaction mixture (final compound conc.: 0.1 μmol/L, final DMSO conc.: 0.01%) was incubated for 30 min at 37° C., and the reaction was terminated by adding 150 μL of methanol/acetonitrile solution containing an appropriate internal standard compound. The sample was vortexed and centrifuged, and obtained supernatant was subject to LC/MS analysis.

[3] = CSF, CSF concentration, read-out: [CSF]
[4] = brain, total brain concentration, read-out: [Br]
[5] = brain, unbound brain, [Br] x Br Fu, read-out: [Bru]
[6] = plasma, total plasma concentration, read-out: [Pl]
[7] = plasma, unbound plasma, [Pl] x Pl Fu, read-out: [Plu]

concentration at 2 h [1, 3]: 34 nM
Kp at 2 h ([1]; CSF, read-out: CSF:Plu): 0.6
concentration at 4 h [1, 3]: 16 nM
Kp at 4 h ([1]; CSF, read-out: CSF:Plu): 0.5
concentration at 6 h [1, 3]: 15 nM
Kp at 6 h ([1]; CSF, read-out: CSF:Plu): 0.5
concentration at 8 h [1, 3]: 9 nM
Kp at 8 h ([1]; CSF, read-out: CSF:Plu): 0.7
Kp at 2 h ([1]; brain, read-out: Brtot:Pltot): 2.8
Kp at 2 h ([1]; brain, read-out: Bru:Plu): 0.7
concentration at 2 h [1, 4]: 1090 nM
concentration at 2 h [1, 5]: 38 nM
Kp at 4 h ([1]; brain, read-out: Brtot:Pltot): 2.5
Kp at 4 h ([1]; brain, read-out: Bru:Plu): 0.6
concentration at 4 h [1, 4]: 576 nM
concentration at 4 h [1, 5]: 20 nM
Kp at 6 h ([1]; brain, read-out: Brtot:Pltot): 2.4
Kp at 6 h ([1]; brain, read-out: Bru:Plu): 0.6
concentration at 6 h [1, 4]: 561 nM
concentration at 6 h [1, 5]: 20 nM
Kp at 8 h ([1]; brain, read-out: Brtot:Pltot): 3
Kp at 8 h ([1]; brain, read-out: Bru:Plu): 0.7
concentration at 8 h [1, 4]: 257 nM
concentration at 8 h [1, 5]: 9 nM
concentration at 2 h [1, 6]: 385 nM
concentration at 2 h [1, 7]: 55 nM
concentration at 4 h [1, 6]: 226 nM
concentration at 4 h [1, 7]: 32 nM
concentration at 6 h [1, 6]: 232 nM
concentration at 6 h [1, 7]: 33 nM
concentration at 8 h [1, 6]: 85 nM
concentration at 8 h [1, 7]: 12 nM
HLM stability: percentage of parent remaining upon 30 minute incubation with human liver microsomes [2]: 73.3%
SMILES: COc1cnc(C(=O)Nc2ccc(F)c([C@]34CO[C@H](C(F)F)[C@H]3CSC(N)=N4)c2)cn1 [Example 3, N-(3-((4aS,5S,7aS)-2-amino-5-(difluoromethyl)-4a,5,7,7a-tetrahydro-4H-furo[3,4-d][1,3]thiazin-7a-yl)-4-fluorophenyl)-5-methoxypyrazine-2-carboxamide]
